# Assay results published in paper PMC6521598, “Identification of GLPG/ABBV-2737, a Novel Class of Corrector, Which Exerts Functional Synergy With Other CFTR Modulators” (Frontiers in Pharmacology, 2019).
# Legend:
# F508del CFTR [1] = biological target: T1, F508del CFTR (Homo sapiens, UniProt P13569, DEL508-508); test: CSE-MEM assay (cell surface expression DiscoverX assay); type: cell-based; parameters: University of North Carolina; host or cells: primary human bronchial epithelial cells, F508del/F508del donors; conditions: 24 h treatment; for % F508del PM Expression vs control: VX809 rescue = 100%
# Protocol: Twenty-five microliters of cell plating reagent 5 (DiscoverX, 93-0563R5A) containing 5000 U2OS EA-MEM F508del_CFTR cells per well was added in white 384 well plates (Greiner, 781080) on day 1 and incubated overnight at 37°C, 5% CO2. On day 2, medium was refreshed and compounds (1 μl of 26 × concentrated solution) were added to the cells. All compounds used during the experiment were first dissolved in DMSO to a 10 mM solution which was then diluted to a 26 × solution in the medium just prior to the experiment. Cells were incubated with compounds for 20–24 h at 37°C, 5% CO2. On day 3, the plates were first incubated at room temperature for 1 h. After 1 h the plates were washed two times with PBS +/+ (Gibco, 14040-091) and 30 μL PBS +/+ (Gibco, 14040-091) was added after the last wash step. Then 15 μL of substrate (DiscoverX, 93-0247: 1 part Flash cell assay buffer + 4 parts Flash substrate) was added per well. After 1 h of incubation at room temperature in the dark, the luminescence signal was read on an EnVision plate reader (PerkinElmer).
# (§1) To discover novel correctors several high throughput screening campaigns were performed using cell based assays measuring plasma membrane expression of the F508del CFTR protein. The CSE-HRP system used CFBE41O-cells, a lung epithelial cell line, stably transfected with F508del CFTR tagged with HRP in the fourth extracellular loop ([Veit et al., 2014]). The CSE-MEM system, used U2OS cells, an osteosarcoma epithelial cell line, stably transfected with F508del CFTR tagged with a Pro-link moiety at the C-terminal and a plasma membrane located EA (enzyme acceptor) moiety. The latter cells were created by DiscoverX and the assay further optimized to allow robust evaluation in a high throughput manner.
# For screening, cells were pre-incubated with compound for 24 h prior to read-out to allow sufficient time for de novo synthesis, and cellular trafficking of F508del-CFTR to reach steady state levels at the plasma membrane. […]
# [2] = parameters: method as in Brearley et al., 2017; conditions: healthy volunteers; ref Brearley et al., 2017; cited from earlier work
# F508del CFTR [3] = biological target: T1, F508del CFTR; test: CSE-HRP assay (cell surface expression horseradish peroxidase assay); type: cell-based; parameters: University of North Carolina; host or cells: primary human bronchial epithelial cells, F508del/F508del donors; conditions: 24 h treatment; for % F508del PM Expression vs control: VX809 rescue = 100%
# Protocol: CFBE41o^- TetON cells expressing HRP tagged F508del-CFTR ([Veit et al., 2012]) were seeded at a density of 2000 cells per well in white 384-well plates (Greiner). Medium containing 500 ng/ml doxycycline was used to induce expression of the F508del-CFTR–HRP construct. After 3 days, cells were treated with corrector and/or potentiator compounds and transferred to an incubator at 33°C. On day 4, cells were washed five times with PBS containing Ca^2+ and Mg^2+ using a Bio-Tek plate washer and incubated with a chemiluminescent HRP substrate (SuperSignal West Pico Chemiluminescent Substrate, Thermo Scientific) for 15 min. Chemiluminescence was measured using an Envision plate reader (Perkin Elmer).
# as §1
# For screening, cells were pre-incubated with compound for 24 h prior to read-out to allow sufficient time for de novo synthesis, and cellular trafficking of F508del-CFTR to reach steady state levels at the plasma membrane. A diverse set of 105,000 small molecules was screened in both cell assays in presence and absence of a fixed concentration (3 μM) of VX809. For the identification of suitable starting points we primarily focused on hits that increased the F508del CFTR surface expression under all conditions as exemplified by compound HIT1.
# T1 sequence (P13569 with tags, fused parts or gaps DEL508-508): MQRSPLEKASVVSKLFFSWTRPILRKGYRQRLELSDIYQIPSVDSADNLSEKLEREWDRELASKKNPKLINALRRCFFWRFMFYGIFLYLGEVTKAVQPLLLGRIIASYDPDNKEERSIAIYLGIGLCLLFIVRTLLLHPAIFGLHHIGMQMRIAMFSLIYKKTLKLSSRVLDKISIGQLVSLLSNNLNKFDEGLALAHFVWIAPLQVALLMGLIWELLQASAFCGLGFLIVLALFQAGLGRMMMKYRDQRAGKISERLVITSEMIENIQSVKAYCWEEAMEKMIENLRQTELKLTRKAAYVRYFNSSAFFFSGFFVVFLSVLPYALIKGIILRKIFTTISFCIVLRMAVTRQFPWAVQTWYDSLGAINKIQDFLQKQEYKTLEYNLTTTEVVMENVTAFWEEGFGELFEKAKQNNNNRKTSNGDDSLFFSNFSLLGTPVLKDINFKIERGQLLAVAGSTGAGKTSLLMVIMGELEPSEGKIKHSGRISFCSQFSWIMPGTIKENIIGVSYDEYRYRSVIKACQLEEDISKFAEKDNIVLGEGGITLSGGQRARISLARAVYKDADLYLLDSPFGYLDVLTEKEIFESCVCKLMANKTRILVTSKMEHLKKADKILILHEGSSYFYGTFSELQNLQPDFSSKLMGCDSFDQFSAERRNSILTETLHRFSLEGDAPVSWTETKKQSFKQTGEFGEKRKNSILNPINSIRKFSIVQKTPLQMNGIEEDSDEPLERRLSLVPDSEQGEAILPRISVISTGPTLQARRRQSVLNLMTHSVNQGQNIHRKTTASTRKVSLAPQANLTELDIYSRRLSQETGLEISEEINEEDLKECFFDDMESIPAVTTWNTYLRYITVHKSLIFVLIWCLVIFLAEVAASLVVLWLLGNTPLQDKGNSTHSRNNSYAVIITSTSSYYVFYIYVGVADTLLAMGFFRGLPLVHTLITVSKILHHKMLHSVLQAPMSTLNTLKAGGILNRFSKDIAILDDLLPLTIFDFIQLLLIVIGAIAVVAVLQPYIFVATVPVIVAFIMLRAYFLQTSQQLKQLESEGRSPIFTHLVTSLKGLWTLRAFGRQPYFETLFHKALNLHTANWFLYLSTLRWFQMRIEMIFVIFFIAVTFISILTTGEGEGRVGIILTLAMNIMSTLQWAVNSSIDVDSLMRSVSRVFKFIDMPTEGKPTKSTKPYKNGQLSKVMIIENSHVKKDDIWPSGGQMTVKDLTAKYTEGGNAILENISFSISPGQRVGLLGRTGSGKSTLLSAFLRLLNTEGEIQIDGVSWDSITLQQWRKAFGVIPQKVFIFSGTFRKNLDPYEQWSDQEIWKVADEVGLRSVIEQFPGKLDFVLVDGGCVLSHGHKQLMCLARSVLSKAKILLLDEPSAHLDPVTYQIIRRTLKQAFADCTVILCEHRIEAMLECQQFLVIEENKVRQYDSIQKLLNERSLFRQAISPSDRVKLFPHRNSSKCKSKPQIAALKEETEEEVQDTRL
structure (smiles),measurement,setting,value
COC1CCN(C2CCN(c3cc(C(=O)NS(=O)(=O)N(C)C)nc4c3c(C3CCC3)nn4-c3ccc(F)cc3)CC2)CC1 [GLPG2737],% F508del PM Expression vs control,F508del CFTR [1]; + 3 μM VX809,415%
same,EC50,F508del CFTR [1]; no co-corrector,707 nM
same,% F508del PM Expression vs control,F508del CFTR [1]; no co-corrector,197%
same,observed exposure in humans,[2],dose linear
same,% F508del PM Expression vs control,F508del CFTR [3]; + 3 μM VX809,416%
same,EC50,F508del CFTR [3]; no co-corrector,809 nM
same,% F508del PM Expression vs control,F508del CFTR [3]; no co-corrector,264%
